Assay results as given in PubChem BioAssay (NCI).
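1) Cells in 96-well plates. 2) Compound, 48 h, 5 concentrations. 3) Linear interpolation between surrounding doses. 4) Unreached endpoint = highest concentration. Here, GI50 denotes the concentration required for 50% inhibition of growth. TGI: concentration producing complete growth inhibition.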

How the values were obtained:
Assay in all cases: NCI anticancer screen, dose series, 48 h
[1] = test system: ACHN renal
[2] = test system: T-47D breast
[3] = test system: PC-3 prostate
[4] = test system: OVCAR-8 ovarian
[5] = test system: M14 melanoma
[6] = test system: NCI-H23 lung
[7] = test system: HCC-2998 colon
[8] = test system: SF-539 CNS
[9] = test system: RXF 393 renal
[10] = test system: CAKI-1 renal
[11] = test system: DU-145 prostate
[12] = test system: UACC-62 melanoma
[13] = test system: NCI-H522 lung
[14] = test system: 786-0 renal
[15] = test system: MCF7 breast
[16] = test system: MOLT-4 leukemia
[17] = test system: A549 NSCLC
[18] = test system: SK-MEL-28 melanoma
[19] = test system: NCI-H226 lung
[20] = test system: K-562 leukemia
[21] = test system: OVCAR-4 ovarian
[22] = test system: NCI/ADR-RES ovarian
[23] = test system: HCT-15 colon
[24] = test system: IGROV1 ovarian
[25] = test system: UACC-257 melanoma
[26] = test system: SR leukemia
[27] = test system: SF-295 CNS
[28] = test system: HT29 colon
[29] = test system: SNB-75 CNS
[30] = test system: SK-MEL-2 melanoma
[31] = test system: HCT-116 colon
[32] = test system: LOX IMVI melanoma
[33] = test system: NCI-H460 lung
[34] = test system: A498 renal
[35] = test system: HL-60(TB) leukemia
[36] = test system: MDA-MB-231 breast
[37] = test system: UO-31 renal
[38] = test system: KM12 colon
[39] = test system: BT-549 breast
[40] = test system: HOP-92 NSCLC
[41] = test system: SK-OV-3 ovarian
[42] = test system: EKVX NSCLC
[43] = test system: TK-10 renal
[44] = test system: SK-MEL-5 melanoma
[45] = test system: MDA-MB-435
[46] = test system: SF-268 CNS
[47] = test system: HS 578T breast
[48] = test system: U251 CNS
[49] = test system: COLO 205 colon
[50] = test system: CCRF-CEM leukemia
[51] = test system: MALME-3M melanoma
[52] = test system: OVCAR-3 ovarian
[53] = test system: SW-620 colon
[54] = test system: RPMI-8226 leukemia
[55] = test system: HOP-62 NSCLC
[56] = test system: OVCAR-5 ovarian
[57] = test system: SN12C renal
[58] = test system: SNB-19 CNS

Structure (SMILES): Cc1nc2cnc(N)c(C#Cc3cncc(C(=O)Nc4ccc(Cl)c(C(F)(F)F)c4)c3)c2nc1C
- GI50 [1]: 1.89 µM
- TGI [1]: 12.1 µM
- GI50 [2]: 5.02 µM
- TGI [2]: 27.6 µM
- GI50 [3]: 3.9 µM
- TGI [3]: 18.7 µM
- GI50 [4]: 4.45 µM
- TGI [4]: 24.5 µM
- GI50 [5]: 0.243 µM
- TGI [5]: 1.85 µM
- GI50 [6]: 0.579 µM
- TGI [6]: 5.4 µM
- GI50 [7]: 0.771 µM
- TGI [7]: 4.35 µM
- GI50 [8]: 0.518 µM
- TGI [8]: 10.2 µM
- GI50 [9]: 0.799 µM
- TGI [9]: 4.23 µM
- GI50 [10]: 2.26 µM
- TGI [10]: 15.6 µM
- GI50 [11]: 2.93 µM
- TGI [11]: 13.3 µM
- GI50 [12]: 0.264 µM
- TGI [12]: 2.15 µM
- GI50 [13]: 1.8 µM
- TGI [13]: 14.8 µM
- GI50 [14]: 3.41 µM
- TGI [14]: 17.9 µM
- GI50 [15]: 1.91 µM
- TGI [15]: 6.84 µM
- GI50 [16]: 1.68 µM
- TGI [16]: 5.82 µM
- GI50 [17]: 3.27 µM
- TGI [17]: 22.6 µM
- GI50 [18]: 0.264 µM
- TGI [18]: 1.68 µM
- GI50 [19]: 0.555 µM
- TGI [19]: 9.79 µM
- GI50 [20]: 0.168 µM
- TGI [20]: > 100 µM
- GI50 [21]: 4.01 µM
- TGI [21]: 17 µM
- GI50 [22]: 2.95 µM
- TGI [22]: 19.1 µM
- GI50 [23]: 1.55 µM
- TGI [23]: 4.03 µM
- GI50 [24]: 0.653 µM
- TGI [24]: 12.6 µM
- GI50 [25]: 0.519 µM
- TGI [25]: 9.65 µM
- GI50 [26]: 1.71 µM
- TGI [26]: 5.02 µM
- GI50 [27]: 3.44 µM
- TGI [27]: 18.8 µM
- GI50 [28]: 0.346 µM
- TGI [28]: 2.11 µM
- GI50 [29]: 2.43 µM
- TGI [29]: 11.8 µM
- GI50 [30]: 0.328 µM
- TGI [30]: 1.89 µM
- GI50 [31]: 0.249 µM
- TGI [31]: 2.11 µM
- GI50 [32]: 0.257 µM
- TGI [32]: 1.43 µM
- GI50 [33]: 2.3 µM
- TGI [33]: 10.2 µM
- GI50 [34]: 3.1 µM
- TGI [34]: 15.4 µM
- GI50 [35]: 0.0754 µM
- TGI [35]: 4.12 µM
- GI50 [36]: 0.308 µM
- TGI [36]: 5.09 µM
- GI50 [37]: 0.381 µM
- TGI [37]: 10.9 µM
- TGI [38]: 3.53 µM
- GI50 [39]: 1.99 µM
- TGI [39]: 6.64 µM
- GI50 [40]: 0.196 µM
- TGI [40]: 1.78 µM
- GI50 [41]: 9.11 µM
- TGI [41]: 23.3 µM
- GI50 [42]: 2.48 µM
- TGI [42]: 19.1 µM
- GI50 [43]: 5.32 µM
- TGI [43]: 18.9 µM
- GI50 [44]: 1.08 µM
- TGI [44]: 11.1 µM
- GI50 [45]: 0.442 µM
- TGI [45]: 4.06 µM
- GI50 [46]: 2.46 µM
- TGI [46]: 15.6 µM
- GI50 [47]: 1.64 µM
- TGI [47]: 7.19 µM
- GI50 [48]: 2.88 µM
- TGI [48]: 16.9 µM
- GI50 [49]: 0.442 µM
- TGI [49]: 9.17 µM
- GI50 [50]: 3.75 µM
- TGI [50]: 52.8 µM
- GI50 [51]: 0.118 µM
- TGI [51]: 0.825 µM
- GI50 [52]: 3.33 µM
- TGI [52]: 12.7 µM
- GI50 [53]: 0.891 µM
- TGI [53]: 11.2 µM
- GI50 [54]: 3.32 µM
- TGI [54]: 22.5 µM
- GI50 [55]: 1.87 µM
- TGI [55]: 18.7 µM
- GI50 [56]: 0.383 µM
- TGI [56]: 11.3 µM
- GI50 [57]: 1.16 µM
- TGI [57]: 4 µM
- GI50 [58]: 6.53 µM
- TGI [58]: 20.7 µM
